Measurements published in patent publication US7094593B1, “Method for improving the function of heterologous G protein-coupled receptors” (priority 1998, dated 2006).

Key:
[1] = test system: Ce 5HTR-M3 MAR IC3Δ; test: Liquid culture yeast growth assay, Ce 5HTR containing the M3 MAR IC3Δ; assay type: cell-based, C. elegans; settings: for antagonist effect on growth inducing effect of serotonin: antagonist at 10 μM
Description: In order to construct the IC3 replacement, PCR fragments encoding three domains were prepared by standard means. Fragment 1 contains the amino terminal-coding portion of the Ce 5HTR to the intracellular interface of the 5th TMD, amplified by PCR using oligonucleotides ([…]) (SEQ ID NO: 27) and ([…] […] […]) (SEQ ID NO: 28). The second fragment of the Ce 5HTR contains carboxy-terminal coding sequences starting proximal to the intracellular interface of the 6th TMD, amplified by PCR using oligonucleotides ([…]) (SEQ ID NO: 29) and ([…] […] […]) (SEQ ID NO: 30). The M3 MAR IC3Δ domain was amplified by PCR as described in Example 1.
These fragments were isolated, mixed and amplified by PCR with 5′ ([…]) (SEQ ID NO: 27) and 3′ ([…]) ([…]) oligonucleotides. The resulting fragment was digested with appropriate restriction endonucleases and assembled in p426GPD to place the mutated Ce 5HTR under control of the GPD promoter.
Yeast cells containing the Ce 5HTR were assayed in liquid culture. […] In similar reactions, the serotonergic antagonists lisuride and mianserin were added to each well at 10 μM. […] Ki values were determined using the equation of Cheng and Pruesoff. (Y Cheng et al. (1973)).

[2] = target: wild type human alpha2A adrenergic receptor (Homo sapiens, UniProt P08913); settings: yeast cells containing wild type receptor, 18 hours
Chain of wild type human alpha2A adrenergic receptor (P08913 whole entry): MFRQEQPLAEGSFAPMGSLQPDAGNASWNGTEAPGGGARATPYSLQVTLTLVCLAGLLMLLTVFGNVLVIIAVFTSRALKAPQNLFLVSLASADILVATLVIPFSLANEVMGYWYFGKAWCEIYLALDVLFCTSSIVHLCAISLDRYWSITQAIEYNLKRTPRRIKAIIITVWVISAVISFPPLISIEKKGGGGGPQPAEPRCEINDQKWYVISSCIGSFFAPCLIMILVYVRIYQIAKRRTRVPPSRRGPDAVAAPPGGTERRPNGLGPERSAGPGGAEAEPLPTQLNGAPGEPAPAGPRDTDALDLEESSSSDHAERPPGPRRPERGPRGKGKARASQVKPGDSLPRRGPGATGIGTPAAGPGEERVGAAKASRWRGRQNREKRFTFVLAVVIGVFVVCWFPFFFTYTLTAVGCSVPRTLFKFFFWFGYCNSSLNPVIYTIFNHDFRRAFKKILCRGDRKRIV
Description: (§2) Yeast cells containing the wild type IC3Δ human alpha2A adrenergic receptor were assayed in liquid culture using the alpha adrenergic receptor full agonist UK14304 (RBI) and partial agonist clonidine.

[3] = target: IC3Δ human alpha2A adrenergic receptor (Homo sapiens, UniProt P08913, DEL273-347)
Chain of IC3Δ human alpha2A adrenergic receptor (P08913 with tags, fused parts or gaps DEL273-347 limits assumed): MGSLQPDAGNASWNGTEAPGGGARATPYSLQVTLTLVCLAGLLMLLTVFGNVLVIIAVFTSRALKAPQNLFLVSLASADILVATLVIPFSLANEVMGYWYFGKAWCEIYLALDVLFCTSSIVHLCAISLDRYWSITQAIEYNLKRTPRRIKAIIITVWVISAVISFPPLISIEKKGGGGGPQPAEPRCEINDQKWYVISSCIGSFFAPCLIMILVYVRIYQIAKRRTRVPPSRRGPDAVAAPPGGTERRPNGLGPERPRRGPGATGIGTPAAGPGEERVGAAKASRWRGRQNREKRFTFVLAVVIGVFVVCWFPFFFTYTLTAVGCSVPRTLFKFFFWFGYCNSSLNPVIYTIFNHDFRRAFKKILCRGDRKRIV
Description: as §2

[4] = target: T1, wild type D. melanogaster MAR (DMAR) (Drosophila melanogaster, UniProt P16395); test: Liquid culture yeast growth assay, wild type DMAR; assay type: cell-based; settings: yeast cells containing wild type DMAR
T1 construct: expressed in transfected cells; host or cells: Saccharomyces cerevisiae MPY578fc, plasmid pMP3
T1 sequence (P16395 1-805): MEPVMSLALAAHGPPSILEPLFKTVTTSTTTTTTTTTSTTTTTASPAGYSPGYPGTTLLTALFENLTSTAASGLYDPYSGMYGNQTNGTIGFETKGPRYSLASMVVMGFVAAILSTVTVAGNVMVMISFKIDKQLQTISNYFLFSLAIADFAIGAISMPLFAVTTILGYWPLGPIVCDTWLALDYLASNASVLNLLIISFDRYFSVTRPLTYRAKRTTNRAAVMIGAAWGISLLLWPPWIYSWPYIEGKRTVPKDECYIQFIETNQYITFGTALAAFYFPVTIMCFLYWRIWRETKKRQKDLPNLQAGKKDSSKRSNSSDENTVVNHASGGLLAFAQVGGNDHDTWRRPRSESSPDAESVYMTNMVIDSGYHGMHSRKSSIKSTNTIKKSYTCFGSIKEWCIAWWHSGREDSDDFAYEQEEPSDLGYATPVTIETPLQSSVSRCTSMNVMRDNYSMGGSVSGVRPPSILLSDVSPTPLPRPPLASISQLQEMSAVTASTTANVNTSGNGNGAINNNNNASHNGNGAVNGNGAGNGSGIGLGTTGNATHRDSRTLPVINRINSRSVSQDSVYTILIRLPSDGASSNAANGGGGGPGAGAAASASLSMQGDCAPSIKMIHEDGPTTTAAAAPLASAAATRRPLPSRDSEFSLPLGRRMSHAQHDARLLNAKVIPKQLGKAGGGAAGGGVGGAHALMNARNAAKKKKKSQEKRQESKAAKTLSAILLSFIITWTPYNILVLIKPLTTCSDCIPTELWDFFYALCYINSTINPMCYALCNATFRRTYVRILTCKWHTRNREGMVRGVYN
Description: (§1) In order to construct the IC3 replacement, PCR fragments encoding three domains were prepared by standard means. Fragment 1 consisted of the amino terminal coding portion of the Drosophila MAR up to an Agel site within the 5th TMD, amplified by PCR using oligonucleotides (AAA AGATCT AAA ATG […]) (SEQ ID NO: 7) and (CCA GTA GAG GAA […] AGGCCT AAGTAGAAGGCGGCCAGTGC) (SEQ ID NO: 8). The second fragment of the DMAR was composed of carboxy terminal coding sequences starting with a PmII site in the 6th TMD, amplified by PCR using oligonucleotides ([…]) (SEQ ID NO: 9) and (AAA CTCGAG […]) (SEQ ID NO: 10). The M3 MAR IC3Δ domain was amplified as an Agel-PmII fragment with coding sequence in frame with fragments 1 and 2, described in Example 1. These fragments were assembled in plasmid p426GPD to place the mutated DMAR under control of the GPD promoter. The wild type DMAR was cloned into the expression vector, pMP3, described in U.S. Pat. No. 5,691,188.

[5] = target: T2, DMAR-M3 MAR IC3Δ (Drosophila melanogaster, UniProt P16395, C285T/D301E/F279L/F286I/K296E/N304G/P303A/Q299T/R293K/W292Y); test: Liquid culture yeast growth assay, mutated DMAR containing the M3 MAR IC3Δ; assay type: cell-based, D. melanogaster; settings: yeast cells containing mutated DMAR with M3 MAR IC3Δ
T2 construct: expressed in transfected cells; host or cells: Saccharomyces cerevisiae MPY578fc, plasmid p426GPD
T2 sequence (P16395 other isoform, or with tags, fused parts or gaps F279L/C285T/F286I/W292Y/R293K/K296E/Q299T/D301E/P303A/N304G): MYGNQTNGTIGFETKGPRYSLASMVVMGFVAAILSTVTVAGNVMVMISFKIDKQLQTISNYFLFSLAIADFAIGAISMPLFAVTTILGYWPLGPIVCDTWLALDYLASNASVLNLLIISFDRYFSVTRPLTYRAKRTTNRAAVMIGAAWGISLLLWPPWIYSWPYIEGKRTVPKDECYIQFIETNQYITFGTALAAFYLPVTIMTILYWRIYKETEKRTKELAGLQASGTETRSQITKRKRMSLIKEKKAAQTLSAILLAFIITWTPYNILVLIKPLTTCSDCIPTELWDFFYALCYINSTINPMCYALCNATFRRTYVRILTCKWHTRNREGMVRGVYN
Description: as §1

Structure (SMILES): CCN(CC)C(=O)N[C@H]1C=C2c3cccc4[nH]cc(c34)C[C@H]2N(C)C1 [lisuride]
- antagonist effect on growth inducing effect of serotonin [1]: blocked

Structure (SMILES): Brc1c(NC2=NCCN2)ccc2nccnc12 [UK14304]
- yeast cell growth response [2]: dose-dependent growth response
- yeast cell growth response [3]: dose-dependent growth response

Structure (SMILES): CN1CCN2c3ccccc3Cc3ccccc3C2C1 (stereo not shown) [mianserin]
- antagonist effect on growth inducing effect of serotonin [1]: blocked

Structure (SMILES): C[N+](C)(C)CCOC(N)=O [carbachol]
- agonist-dependent yeast cell growth [4]: lack of agonist-dependent yeast cell growth
- agonist-dependent yeast cell growth [5]: agonist-dependent growth response

Structure (SMILES): NCCc1c[nH]c2ccc(O)cc12 [serotonin]
- agonist-dependent yeast cell growth ([1]; yeast cells containing Ce 5HTR-M3 MAR IC3Δ, 18 hours): agonist-dependent growth response
